# What was measured:
# [1] = tested on: NCI-H522; assay: NCI single-dose GI%, NSC lung; type: cell-based, human; details: 10.0 μM in one dose
# [2] = tested on: NCI-H226; assay: NCI single-dose GI%, NSC lung; type: cell-based, human; details: 10.0 μM in one dose
# [3] = tested on: SR; assay: NCI single-dose GI%, leukemia; type: cell-based, human; details: 10.0 μM in one dose
# [4] = tested on: UO-31; assay: NCI single-dose GI%, renal; type: cell-based, human; details: UO-31, renal; 10.0 μM in one dose
# [5] = tested on: 59 cancer cell lines; assay: NCI 59 cancer cell line panel, single dose; type: cell-based, human; details: 10 μM single dose; for MG% (mean growth percent): 59 cell lines
# [6] = tested on: EKVX; assay: NCI single-dose GI%, NSC lung; type: cell-based, human; details: 10.0 μM in one dose
# [7] = tested on: A549/ATCC; assay: NCI single-dose GI%, NSC lung; type: cell-based, human; details: 10.0 μM in one dose
# [8] = tested on: K-562; assay: NCI single-dose GI%, leukemia; type: cell-based, human; details: K-562, leukemia; 10.0 μM in one dose
# [9] = tested on: HL-60(TB); assay: NCI single-dose GI%, leukemia; type: cell-based, human; details: 10.0 μM in one dose
# [10] = tested on: MALME-3M; assay: NCI single-dose GI%, melanoma; type: cell-based, human; details: 10.0 μM in one dose
# [11] = tested on: MOLT-4; assay: NCI single-dose GI%, leukemia; type: cell-based, human; details: MOLT-4, leukemia; 10.0 μM in one dose
# [12] = tested on: UACC-257; assay: NCI single-dose GI%, melanoma; type: cell-based, human; details: UACC-257, melanoma; 10.0 μM in one dose
# [13] = tested on: U251; assay: NCI single-dose GI%, CNS; type: cell-based, human; details: 10.0 μM in one dose
# [14] = tested on: HT29; assay: NCI single-dose GI%, colon; type: cell-based, human; details: 10.0 μM in one dose
# [15] = tested on: T-47D; assay: NCI single-dose GI%, breast; type: cell-based, human; details: 10.0 μM in one dose
# [16] = tested on: BT-549; assay: NCI single-dose GI%, breast; type: cell-based, human; details: BT-549, breast; 10.0 μM in one dose
# [17] = tested on: CAKI-1; assay: NCI single-dose GI%, renal; type: cell-based, human; details: CAKI-1, renal; 10.0 μM in one dose
# [18] = tested on: OVCAR-8; assay: NCI single-dose GI%, ovarian; type: cell-based, human; details: OVCAR-8, ovarian; 10.0 μM in one dose
# [19] = tested on: HOP-62; assay: NCI single-dose GI%, NSC lung; type: cell-based, human; details: HOP-62, NSC lung; 10.0 μM in one dose
# [20] = tested on: NCI-H322M; assay: NCI single-dose GI%, NSC lung; type: cell-based, human; details: 10.0 μM in one dose
# [21] = tested on: SK-OV-3; assay: NCI single-dose GI%, ovarian; type: cell-based, human; details: SK-OV-3, ovarian; 10.0 μM in one dose
# [22] = tested on: TK-10; assay: NCI single-dose GI%, renal; type: cell-based, human; details: TK-10, renal; 10.0 μM in one dose
# [23] = tested on: RPMI-8226; assay: NCI single-dose GI%, leukemia; type: cell-based, human; details: RPMI-8226, leukemia; 10.0 μM in one dose
# [24] = tested on: HL-60 cells; assay: Cell cycle analysis by flow cytometry; type: cell-based, human; details: at IC50 concentration
# Procedure: Flow cytometry measures cell growth in different cell cycle phases (G0–G1, S, G2/M and pre-G1).[33,77] This study aimed to find out how the target compounds affect the growth of cancer cells by examining at how they change the cell cycle and cause apoptosis in HL-60 cells.
# The cell cycle analysis was conducted similarly to our prior study, using the leukemia HL-60 cell line. The cells were stained with the DNA fluorochrome PI and analyzed using a FACSCalibur flow cytometer.[33,77]
# [25] = tested on: PC-3; assay: NCI single-dose GI%, prostate; type: cell-based, human; details: PC-3, prostate; 10.0 μM in one dose
# [26] = tested on: UACC-62; assay: NCI single-dose GI%, melanoma; type: cell-based, human; details: UACC-62, melanoma; 10.0 μM in one dose
# [27] = tested on: HCT-116; assay: NCI single-dose GI%, colon; type: cell-based, human; details: HCT-116, colon; 10.0 μM in one dose
# [28] = tested on: MCF7; assay: NCI single-dose GI%, breast; type: cell-based, human; details: 10.0 μM in one dose
# [29] = tested on: SNB-75; assay: NCI single-dose GI%, CNS; type: cell-based, human; details: SNB-75, CNS; 10.0 μM in one dose
# [30] = tested on: SK-MEL-2; assay: NCI single-dose GI%, melanoma; type: cell-based, human; details: SK-MEL-2, melanoma; 10.0 μM in one dose
# [31] = tested on: MDA-MB-468; assay: NCI single-dose GI%, breast; type: cell-based, human; details: MDA-MB-468, breast; 10.0 μM in one dose
# [32] = tested on: A498; assay: NCI single-dose GI%, renal; type: cell-based, human; details: 10.0 μM in one dose
# [33] = tested on: HCT-15; assay: NCI single-dose GI%, colon; type: cell-based, human; details: HCT-15, colon; 10.0 μM in one dose
# [34] = tested on: COLO 205; assay: NCI single-dose GI%, colon; type: cell-based, human; details: COLO 205, colon; 10.0 μM in one dose
# [35] = tested on: OVCAR-4; assay: NCI single-dose GI%, ovarian; type: cell-based, human; details: OVCAR-4, ovarian; 10.0 μM in one dose
# [36] = tested on: KM12; assay: NCI single-dose GI%, colon; type: cell-based, human; details: 10.0 μM in one dose
# [37] = tested on: SK-MEL-5; assay: NCI single-dose GI%, melanoma; type: cell-based, human; details: SK-MEL-5, melanoma; 10.0 μM in one dose
# [38] = tested on: MDA-MB-231/ATCC; assay: NCI single-dose GI%, breast; type: cell-based, human; details: 10.0 μM in one dose
# [39] = tested on: SF-268; assay: NCI single-dose GI%, CNS; type: cell-based, human; details: SF-268, CNS; 10.0 μM in one dose
SMILES,melting point,GI% [1],GI% [2],GI% [4],PCE (positive cytotoxic effect: ratio of cell lines with growth inhibition >10% to total cell lines) [5],MG% (mean growth percent) [5],GI% [6],GI% [7],GI% [8],GI% [9],GI% [11],GI% [12],GI% [15],GI% [17],GI% [19],GI% [21],GI% [27],GI% [28],GI% [29],GI% [31],further results
"CS(=O)(=O)c1ccc(C(=O)N2N=C(c3ccccc3)CC2c2ccc3c(c2)OCO3)cc1 (stereo not shown) [Compound 18m, (5-(Benzo[d][1,3]dioxol-5-yl)-3-phenyl-4,5-dihydro-1H-pyrazol-1-yl)(4-(methylsulfonyl)phenyl)methanone]",155 to 157 °C,13%,11%,34%,18/59,91.96%,,20%,40%,63%,48%,,22%,,17%,16%,18%,16%,12%,,GI% [32]: 14%; GI% [25]: 15%; GI% [16]: 14%; GI% [33]: 14%; GI% [34]: 19%
"COc1ccc(C2=NN(C(=O)c3ccc(S(C)(=O)=O)cc3)C(c3ccccc3)C2)c(OC)c1 (stereo not shown) [Compound 18n, (3-(2,4-Dimethoxyphenyl)-5-phenyl-4,5-dihydro-1H-pyrazol-1-yl)(4-(methylsulfonyl)phenyl)methanone]",216 to 218 °C,20%,14%,24%,20/59,93.24%,28%,,26%,55%,38%,,14%,15%,20%,,18%,65%,15%,36%,GI% [35]: 12%; GI% [25]: 15%; GI% [36]: 12%; GI% [30]: 18%; GI% [37]: 21%; GI% [38]: 12%
"COc1ccc(C2=NN(C(=O)c3ccc(S(C)(=O)=O)cc3)C(c3ccc(OC)c(OC)c3)C2)c(OC)c1 (stereo not shown) [Compound 18p, (3-(2,4-Dimethoxyphenyl)-5-(3,4-dimethoxyphenyl)-4,5-dihydro-1H-pyrazol-1-yl)(4-(methylsulfonyl)phenyl)methanone]",169 to 171 °C,13%,15%,25%,11/59,97.33%,,,23%,31%,,,25%,,26%,16%,17%,,,13%,GI% [39]: 11%
"COc1ccc(C2=NN(C(=O)c3ccc(S(C)(=O)=O)cc3)C(c3cc(OC)c(OC)c(OC)c3)C2)cc1OC (stereo not shown) [Compound 18q, (3-(3,4-Dimethoxyphenyl)-5-(3,4,5-trimethoxyphenyl)-4,5-dihydro-1H-pyrazol-1-yl)(4-(methylsulfonyl)phenyl)methanone]",150 to 152 °C,,,24%,6/59,97.51%,,,,,,,,13%,,,,12%,13%,12%,GI% [32]: 13%

# Further lines, with some results ahead:
melting point,SMILES,GI% [1],GI% [2],GI% [4],PCE (positive cytotoxic effect: ratio of cell lines with growth inhibition >10% to total cell lines) [5],MG% (mean growth percent) [5],GI% [6],GI% [7],GI% [8],GI% [9],GI% [11],GI% [12],GI% [15],GI% [17],GI% [19],GI% [21],GI% [27],GI% [28],GI% [29],GI% [31],further results
259 to 261 °C,"CS(=O)(=O)c1ccc(C(=O)N2N=C(c3ccccc3)CC2c2ccccc2)cc1 (stereo not shown) [Compound 18a, (3,5-Diphenyl-4,5-dihydro-1H-pyrazol-1-yl)(4-(methylsulfonyl)phenyl)methanone]",18%,11%,12%,11/59,98.11%,11%,18%,19%,32%,32%,14%,,,,,,,,,GI% [3]: 13%; GI% [10]: 11%
311 to 313 °C,"CS(=O)(=O)c1ccc(C(=O)N2N=C(c3ccc(F)cc3)CC2c2ccccc2)cc1 (stereo not shown) [Compound 18d, (3-(4-Fluorophenyl)-5-phenyl-4,5-dihydro-1H-pyrazol-1-yl)(4-(methylsulfonyl)phenyl)methanone]",43%,,27%,18/59,93.02%,16%,24%,32%,57%,37%,37%,17%,14%,29%,13%,,,,,GI% [13]: 17%; GI% [14]: 14%; GI% [16]: 15%; GI% [18]: 15%; GI% [20]: 14%; GI% [22]: 12%
225 to 227 °C,"Cc1ccc(C2CC(c3ccccc3)=NN2C(=O)c2ccc(S(C)(=O)=O)cc2)cc1 (stereo not shown) [Compound 18f, (4-(Methylsulfonyl)phenyl)(3-phenyl-5-(4-tolyl)-4,5-dihydro-1H-pyrazol-1-yl)methanone]",37%,17%,24%,21/59,93.80%,13%,16%,,14%,30%,26%,16%,16%,12%,,20%,11%,20%,15%,GI% [13]: 11%; GI% [23]: 18%; phase of cell cycle arrest [24]: S/G2 phase; GI% [25]: 28%; GI% [26]: 12%; GI% [14]: 12%; GI% [30]: 11%

# — PMC11240878, “Synthesis, enzyme inhibition assay, and molecular modeling study of novel pyrazolines linked to 4-methylsulfonylphenyl scaffold: antitumor activity and cell cycle analysis” (RSC Advances, 2024)
